# Experimental data as given in BindingDB's records for doi:10.1021/jm950507y (Glaxo Wellcome Research Institute, 1996).
# Experiment: Average concentration of compound to cause 50% inhibition of topoisomerase-1 isolated from calf thymus
row,SMILES,IC50 [nM]
1,"CC[C@@]1(O)C(=O)OCc2c1cc1n(c2=O)Cc2c-1nc1cc3c(cc1c2C[n+]1ccccc1)OCCO3 [8-ethyl-8-hydroxy-15-(1-pyridiniumylmethyl)-(8S)-2,3,8,9,12,14-hexahydro-11H-[1,4]dioxino[3,2-g]pyrano[3',4':6,7]indolizino[1,2-b]quinoline-9,12-dione]",190
2,"CC[C@@]1(O)C(=O)OCc2c1cc1n(c2=O)Cc2c-1nc1cc3c(cc1c2C[n+]1ccncc1)OCCO3 [8-ethyl-8-hydroxy-15-pyrazin-1-ium-1-ylmethyl-(8S)-2,3,8,9,12,14-hexahydro-11H-[1,4]dioxino[3,2-g]pyrano[3',4':6,7]indolizino[1,2-b]quinoline-9,12-dione]",180
